# Biological target: T1, GLP-1R (Homo sapiens, UniProt P43220)
# T1 construct: host or cells: GLP-1R CRE-bla CHO-K1 cells
# Experiment: EC20 GLP-1(9-36) PAM cAMP assay: dose response of compound in the presence of fixed concentration of GLP-1(9-36)
# Format: cell-based
# Conditions: dose response of compound in presence of fixed concentration of GLP-1(9-36), GLP-1R CRE-bla CHO-K1 cells, read-out: EC20 GLP-1(9-36) PAM EC50
# How it was run: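 Positive allosteric modulation read as cAMP accumulation: compound titrations (12 points) combined with an EC20 level of GLP-1(9-36) on CHO-K1 GLP-1R CRE-bla cells, IBMX present, 30 min, 37 °C, pH 7.4 buffer. Luminescence converted to cAMP via standards; non-linear fit gave EC50 and Emax.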
# T1 sequence (P43220 24-463): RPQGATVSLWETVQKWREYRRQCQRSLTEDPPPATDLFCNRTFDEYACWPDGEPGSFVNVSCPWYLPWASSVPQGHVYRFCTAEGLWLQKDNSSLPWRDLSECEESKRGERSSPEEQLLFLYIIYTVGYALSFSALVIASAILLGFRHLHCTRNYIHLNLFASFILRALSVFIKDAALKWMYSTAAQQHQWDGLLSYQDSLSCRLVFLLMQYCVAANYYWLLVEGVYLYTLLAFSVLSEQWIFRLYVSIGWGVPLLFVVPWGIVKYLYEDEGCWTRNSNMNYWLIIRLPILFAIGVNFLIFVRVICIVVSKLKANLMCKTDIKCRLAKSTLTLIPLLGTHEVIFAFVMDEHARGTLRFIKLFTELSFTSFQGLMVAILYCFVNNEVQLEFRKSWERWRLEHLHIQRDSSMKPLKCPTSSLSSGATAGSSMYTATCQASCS
# T1 sequence (P01275 100-127 partner limits assumed): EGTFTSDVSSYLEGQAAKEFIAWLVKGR
row,Structure (SMILES),EC50
1,CCCCCCCOc1ccc(-c2cnc(-c3ccc(C[C@H](NC(=O)c4ccc(C(C)(C)C)s4)C(=O)N[C@H](C)C(=O)O)cc3)nc2)nc1 [Compound 1063],< 800 nM
2,CCCCCCCOc1ccc(-c2cnc(-c3ccc(C[C@H](NC(=O)c4ccc(C(C)(C)C)s4)C(=O)N4CCC[C@H]4C(=O)O)cc3)nc2)nc1 [Compound 1064],800 to 2500 nM
3,CCCCCCCOc1ccc(-c2cnc(-c3ccc(C[C@H](NC(=O)c4ccc(C(C)(C)C)s4)C(=O)N4CC[C@H](C(=O)O)C4)cc3)nc2)nc1 [Compound 1065],< 800 nM
4,CCCCCCCOc1ccc(-c2cnc(-c3ccc(C[C@H](NC(=O)c4ccc(C(C)(C)C)s4)C(=O)N4CC(C(=O)O)C4)cc3)nc2)nc1 [Compound 1066],800 to 2500 nM
5,CC[C@H]1CC[C@H](c2ccc(-c3cnc(-c4ccc(C[C@H](NC(=O)c5ccc(C(C)(C)C)s5)C(=O)N[C@@H](C)C(=O)O)cc4)nc3)cc2)CC1 [Compound 1067],800 to 2500 nM
6,CCCCCCCOc1ccc(-c2cnc(-c3ccc(C[C@H](NC(=O)c4cnn(C(C)(C)C)c4)C(=O)N4CCC[C@H]4C(=O)O)cc3)nc2)cc1 [Compound 1068],800 to 2500 nM
7,CCCCCCCOc1ccc(-c2cnc(-c3ccc(C[C@H](NC(=O)c4ccc(CCC)s4)C(=O)N4CCC[C@H]4C(=O)O)cc3)nc2)cc1 [Compound 1069],800 to 2500 nM
8,CCCCCCCOc1ccc(-c2cnc(-c3ccc(C[C@H](NC(=O)Cc4ccc(OCCCC)cc4)C(=O)N4CCC[C@H]4C(=O)O)cc3)nc2)cc1 [Compound 1070],800 to 2500 nM
9,CCCCCCCOc1ccc(-c2cnc(-c3ccc(C[C@H](NC(=O)c4ccc(OCCC)cc4)C(=O)N4CCC[C@H]4C(=O)O)cc3)nc2)cc1 [Compound 1071],2500 to 5000 nM
10,CCCCCCCOc1ccc(-c2cnc(-c3ccc(C[C@H](NC(=O)c4ccc(CC)s4)C(=O)N4CCC[C@H]4C(=O)O)cc3)nc2)cc1 [Compound 1072],800 to 2500 nM
11,CCCCCCCOc1ccc(-c2cnc(-c3ccc(C[C@H](NC(=O)c4ccc(CCC)cc4)C(=O)N4CCC[C@H]4C(=O)O)cc3)nc2)cc1 [Compound 1073],800 to 2500 nM
12,CCCCCCCOc1ccc(-c2cnc(-c3ccc(C[C@H](NC(=O)c4ccc(C(C)C)cc4)C(=O)N4CCC[C@H]4C(=O)O)cc3)nc2)cc1 [Compound 1074],800 to 2500 nM
13,CCCCCCCOc1ccc(-c2cnc(-c3ccc(C[C@H](NC(=O)c4ccc(CCCC)cc4)C(=O)N4CCC[C@H]4C(=O)O)cc3)nc2)cc1 [Compound 1075],800 to 2500 nM
14,CCCCCCCOc1ccc(-c2cnc(-c3ccc(C[C@H](NC(=O)c4ccc(CC(C)C)cc4)C(=O)N4CCC[C@H]4C(=O)O)cc3)nc2)cc1 [Compound 1076],2500 to 5000 nM
15,CCCCCCCOc1ccc(-c2cnc(-c3ccc(C[C@H](NC(=O)c4ccc(C(C)(C)C)nc4)C(=O)N4CCC[C@H]4C(=O)O)cc3)nc2)cc1 [Compound 1077],800 to 2500 nM
16,CCCCCCCOc1ccc(-c2cnc(-c3ccc(C[C@H](NC(=O)c4cnc(C(C)(C)C)nc4)C(=O)N4CCC[C@H]4C(=O)O)cc3)nc2)cc1 [Compound 1078],2500 to 5000 nM
17,CCCCCCCOc1ccc(-c2cnc(-c3ccc(C[C@H](NC(=O)c4cnn(C(C)(C)C)c4C)C(=O)N4CCC[C@H]4C(=O)O)cc3)nc2)cc1 [Compound 1079],2500 to 5000 nM
18,CCCCCCCOc1ccc(-c2cnc(-c3ccc(C[C@H](NC(=O)c4ccc(CC(C)C)s4)C(=O)N4CCC[C@H]4C(=O)O)cc3)nc2)cc1 [Compound 1080],800 to 2500 nM
19,CCCCCCCOc1ccc(-c2cnc(-c3ccc(C[C@H](NC(=O)c4ccc(C(C)(C)C)c(OC)c4)C(=O)N4CCC[C@H]4C(=O)O)cc3)nc2)cc1 [Compound 1081],800 to 2500 nM
20,CCCCCCCOc1ccc(-c2cnc(-c3ccc(C[C@H](NC(=O)c4ccc(C(C)(C)CC)cc4)C(=O)N4CCC[C@H]4C(=O)O)cc3)nc2)cc1 [Compound 1082],800 to 2500 nM
21,CCCCCCCOc1ccc(-c2cnc(-c3ccc(C[C@H](NC(=O)c4ccc(C5(C)CC5)cc4)C(=O)N4CCC[C@H]4C(=O)O)cc3)nc2)cc1 [Compound 1083],800 to 2500 nM
22,CC(C)(C)c1ccc(C(=O)N[C@@H](Cc2ccc(-c3ncc(-c4ccc(C5CCCC5)cc4)cn3)cc2)C(=O)N2CC[C@H](C(=O)O)C2)s1 [Compound 1084],< 800 nM
23,Cc1ccc(/C=C/c2cnc(-c3ccc(C[C@H](NC(=O)c4ccc(C(C)(C)C)s4)C(=O)N4CC[C@H](C(=O)O)C4)cc3)nc2)cc1 [Compound 1085],800 to 2500 nM
24,CCc1ccc(/C=C/c2cnc(-c3ccc(C[C@H](NC(=O)c4ccc(C(C)(C)C)s4)C(=O)N4CC[C@H](C(=O)O)C4)cc3)nc2)cc1 [Compound 1086],800 to 2500 nM
25,Cc1cc(-c2cnc(-c3ccc(C[C@H](NC(=O)c4ccc(C(C)(C)C)s4)C(=O)N4CC[C@H](C(=O)O)C4)cc3)nc2)ccc1OC(C)C [Compound 1087],< 800 nM
26,CC1(C)CCC(c2ccc(-c3cnc(-c4ccc(C[C@H](NC(=O)c5ccc(C(C)(C)C)s5)C(=O)N5CC(C(=O)O)C5)cc4)nc3)cc2)CC1 [Compound 1088],< 800 nM
27,CC(C)(C)c1ccc(C(=O)N[C@@H](Cc2ccc(-c3ncc(-c4ccc(C5CCCC5)cc4)cn3)cc2)C(=O)N2CC(C(=O)O)C2)s1 [Compound 1089],800 to 2500 nM
28,CC(C)(C)c1ccc(C(=O)N[C@@H](Cc2ccc(-c3ncc(-c4ccc(-c5ccccc5)cc4)cn3)cc2)C(=O)N2CC(C(=O)O)C2)s1 [Compound 1090],< 800 nM

# Results, then the compound that gave them:
row,EC50,Structure (SMILES)
1,800 to 2500 nM,Cc1ccc(/C=C/c2cnc(-c3ccc(C[C@H](NC(=O)c4ccc(C(C)(C)C)s4)C(=O)N4CC(C(=O)O)C4)cc3)nc2)cc1 [Compound 1091]
2,800 to 2500 nM,CCc1ccc(/C=C/c2cnc(-c3ccc(C[C@H](NC(=O)c4ccc(C(C)(C)C)s4)C(=O)N4CC(C(=O)O)C4)cc3)nc2)cc1 [Compound 1092]
3,< 800 nM,Cc1cc(-c2cnc(-c3ccc(C[C@H](NC(=O)c4ccc(C(C)(C)C)s4)C(=O)N4CC(C(=O)O)C4)cc3)nc2)ccc1OC(C)C [Compound 1093]
4,< 800 nM,CCCCCCCOc1ccc(-c2cnc(-c3ccc(C[C@H](NC(=O)c4ccn(C(C)(C)C)c4)C(=O)N4CC[C@H](C(=O)O)C4)cc3)nc2)cc1 [Compound 1094]
5,2500 to 5000 nM,CCCCCCCOc1ccc(-c2cnc(-c3ccc(C[C@H](NC(=O)Cc4ccc(OCCCC)cc4)C(=O)N4CC[C@H](C(=O)O)C4)cc3)nc2)cc1 [Compound 1095]
6,800 to 2500 nM,CCCCCCCOc1ccc(-c2cnc(-c3ccc(C[C@H](NC(=O)c4ccc(O)c(F)c4)C(=O)N4CC[C@H](C(=O)O)C4)cc3)nc2)cc1 [Compound 1096]
7,800 to 2500 nM,CCCCCCCOc1ccc(-c2cnc(-c3ccc(C[C@H](NC(=O)c4ccc(OCCC)cc4)C(=O)N4CC[C@H](C(=O)O)C4)cc3)nc2)cc1 [Compound 1097]
8,2500 to 5000 nM,CCCCCCCOc1ccc(-c2cnc(-c3ccc(C[C@H](NC(=O)c4ccc(CC)cn4)C(=O)N4CC[C@H](C(=O)O)C4)cc3)nc2)cc1 [Compound 1098]
9,800 to 2500 nM,CCCCCCCOc1ccc(-c2cnc(-c3ccc(C[C@H](NC(=O)c4cnn(C(C)(C)C)c4)C(=O)N4CC(C(=O)O)C4)cc3)nc2)cc1 [Compound 1099]
10,2500 to 5000 nM,CCCCCCCOc1ccc(-c2cnc(-c3ccc(C[C@H](NC(=O)c4ccc(C(C)(C)C)cc4OCC)C(=O)N4CC(C(=O)O)C4)cc3)nc2)cc1 [Compound 1100]
11,800 to 2500 nM,CCCCCCCOc1ccc(-c2cnc(-c3ccc(C[C@H](NC(=O)c4oc(C(C)(C)C)cc4C)C(=O)N4CC(C(=O)O)C4)cc3)nc2)cc1 [Compound 1101]
12,800 to 2500 nM,CCCCCCCOc1ccc(-c2cnc(-c3ccc(C[C@H](NC(=O)Cc4ccc(OCCCC)cc4)C(=O)N4CC(C(=O)O)C4)cc3)nc2)cc1 [Compound 1102]
13,800 to 2500 nM,CCCCCCCOc1ccc(-c2cnc(-c3ccc(C[C@H](NC(=O)/C=C/c4ccc(OC)cc4)C(=O)N4CC(C(=O)O)C4)cc3)nc2)cc1 [Compound 1103]
14,800 to 2500 nM,CCCCCCCOc1ccc(-c2cnc(-c3ccc(C[C@H](NC(=O)c4ccc(O)c(F)c4)C(=O)N4CC(C(=O)O)C4)cc3)nc2)cc1 [Compound 1104]
15,2500 to 5000 nM,CCCCCCCOc1ccc(-c2cnc(-c3ccc(C[C@H](NC(=O)c4ccc(OCCC)cc4)C(=O)N4CC(C(=O)O)C4)cc3)nc2)cc1 [Compound 1105]
16,2500 to 5000 nM,CCCCCCCOc1ccc(-c2cnc(-c3ccc(C[C@H](NC(=O)c4ccc(CC)cn4)C(=O)N4CC(C(=O)O)C4)cc3)nc2)cc1 [Compound 1106]
17,800 to 2500 nM,CCCCCCCOc1ccc(-c2cnc(-c3ccc(C[C@H](NC(=O)c4ccc(CCC)s4)C(=O)N4CC(C(=O)O)C4)cc3)nc2)cc1 [Compound 1107]
18,< 800 nM,CCCCCCCOc1ccc(-c2cnc(-c3ccc(C[C@H](NC(=O)c4ccc(CC)cc4)C(=O)N4CC(C(=O)O)C4)cc3)nc2)cc1 [Compound 1108]
19,800 to 2500 nM,CCCCCCCOc1ccc(-c2cnc(-c3ccc(C[C@H](NC(=O)c4ccc(OC)cc4)C(=O)N4CC(C(=O)O)C4)cc3)nc2)cc1 [Compound 1109]
20,800 to 2500 nM,CCCCCCCOc1ccc(-c2cnc(-c3ccc(C[C@H](NC(=O)c4ccc(CC)s4)C(=O)N4CC(C(=O)O)C4)cc3)nc2)cc1 [Compound 1110]
21,800 to 2500 nM,CCCCCCCOc1ccc(-c2cnc(-c3ccc(C[C@H](NC(=O)c4ccc(C5CC5)cc4)C(=O)N4CC(C(=O)O)C4)cc3)nc2)cc1 [Compound 1111]
22,800 to 2500 nM,CCCCCCCOc1ccc(-c2cnc(-c3ccc(C[C@H](NC(=O)c4ccc(CCC)cc4)C(=O)N4CC(C(=O)O)C4)cc3)nc2)cc1 [Compound 1112]
23,800 to 2500 nM,CCCCCCCOc1ccc(-c2cnc(-c3ccc(C[C@H](NC(=O)c4ccc(C(C)C)cc4)C(=O)N4CC(C(=O)O)C4)cc3)nc2)cc1 [Compound 1113]
24,800 to 2500 nM,CCCCCCCOc1ccc(-c2cnc(-c3ccc(C[C@H](NC(=O)c4ccc(OCC)cc4)C(=O)N4CC(C(=O)O)C4)cc3)nc2)cc1 [Compound 1114]
25,800 to 2500 nM,CCCCCCCOc1ccc(-c2cnc(-c3ccc(C[C@H](NC(=O)c4ccc(CCCC)cc4)C(=O)N4CC(C(=O)O)C4)cc3)nc2)cc1 [Compound 1115]

# Source: patent US10034886B2, “GLP-1 receptor modulators” (Celgene International II SÀRL, priority 2014, dated 2018)
